Results as given in patent publication US6759509B1, “Branched peptide linkers” (Bristol-Myers Squibb Company, priority 1996, dated 2004).

Experiment: decomposition of the isolated drug/linker in solution
Assay type: physicochemical
Conditions: by HPLC for Example 31
Method: A solution of MEt-IDA-(Phe-Lys(Mtr)-PABC-MMC)2 30 (134.6 mg, 0.0590 mmol) in methylene chloride (3 mL) at rt was treated with anisole (1.28 mL, 200 equiv) and 1 M chloroacetic acid in methylene chloride (1.18 mL, 20 equiv). After 3.5 h ethyl acetate (30 mL) was added. The resulting purple solid was collected by filtration, washed with ethyl acetate and air-dried (97.8 mg, 82%). […] MS (FAB) 1738.3 (M+Na)^+, 1776.4 (M+K)^+.
MEt-IDA-(Phe-Lys(Mtr)-PABC-7-Paclitaxel)2 33 (333.0 mg, 0.0861 mmol) in methylene chloride (3 mL) was treated with anisole (1.87 mL, 200 equiv) and 1 M chloroacetic acid in methylene chloride (1.72 mL, 20 equiv). After 4 h the mixture was diluted with ether (30 mL). The resulting suspension was sonicated for several minutes and then the solid was collected by filtration and washed with ether (256.3 mg, 97%). […] MS (ESI) 2778.2 (MH)^+.

Substance: MEt-IDA-(Phe-Lys-PABC-MMC)2.2Cl2CHCO2H [Example 31]
- stability of the product in solution: appeared to decompose in solution to one product
